Test results: US9067871B2, “Aminotetraline derivatives, pharmaceutical compositions containing them, and their use in therapy” (ABBVIE DEUTSCHLAND GMBH & CO KG, priority 2009, dated 2015)
Counter-ions that a name gives are not always drawn. Like-named read-outs stand apart in the source and are kept apart here.

Target: human GlyT1c transporter (Homo sapiens (Human), UniProt P48067)
Assay: Radioligand binding assay using recombinant CHO cell membranes expressing human GlyT1
Settings: read-out: radioligand binding Kiapp
Text: 2. Radioligand binding assays using recombinant CHO cell membranes expressing human GlyT1: […]

[1] = human GlyT1c-expressing CHO cell membranes

Chain of human GlyT1c transporter (P48067 whole entry): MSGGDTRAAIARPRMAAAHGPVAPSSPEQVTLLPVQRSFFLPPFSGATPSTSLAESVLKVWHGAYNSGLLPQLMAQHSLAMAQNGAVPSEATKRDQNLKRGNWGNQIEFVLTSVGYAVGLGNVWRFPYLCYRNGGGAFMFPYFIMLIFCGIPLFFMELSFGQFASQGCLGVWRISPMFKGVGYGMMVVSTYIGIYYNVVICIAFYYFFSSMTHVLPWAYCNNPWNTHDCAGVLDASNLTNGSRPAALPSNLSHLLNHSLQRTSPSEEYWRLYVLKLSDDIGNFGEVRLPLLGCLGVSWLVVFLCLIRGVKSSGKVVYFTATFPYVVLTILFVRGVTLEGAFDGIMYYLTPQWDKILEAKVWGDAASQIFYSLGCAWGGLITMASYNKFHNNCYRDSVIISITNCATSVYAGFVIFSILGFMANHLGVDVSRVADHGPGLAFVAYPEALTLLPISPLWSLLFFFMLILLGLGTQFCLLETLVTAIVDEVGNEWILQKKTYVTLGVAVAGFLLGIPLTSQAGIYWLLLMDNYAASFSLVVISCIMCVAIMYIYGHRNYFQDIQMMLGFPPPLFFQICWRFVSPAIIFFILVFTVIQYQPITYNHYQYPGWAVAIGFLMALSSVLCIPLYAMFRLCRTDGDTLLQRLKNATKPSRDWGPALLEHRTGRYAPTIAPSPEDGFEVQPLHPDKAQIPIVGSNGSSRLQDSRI

Ki [1] [µM]	SMILES	Ki [µM]
≤ 10	Cc1cc(CS(=O)(=O)NCCOc2ccc3c(c2)C(Cc2ccc(Cl)c(Cl)c2)C(N)CC3)no1 (stereo not shown) [Example 87, N-{2-[7-Amino-8-(3,4-dichloro-benzyl)-5,6,7,8-tetrahydro-naphthalen-2-yloxy]-ethyl}-C-(5-methyl-isoxazol-3-yl)-methanesulfonamide hydrochloride]	–
≤ 1	N#Cc1cccc(CC2c3cc(OCCNS(=O)(=O)CC4CC4)ccc3CCC2N2CCCC2)c1 (stereo not shown) [Example 155, N-(2-{[8-(3-Cyanobenzyl)-7-(pyrrolidin-1-yl)-5,6,7,8-tetrahydronaphthalen-2-yl]oxy}ethyl)-1-cyclopropylmethanesulfonamide hydrochloride]	–
≤ 0.01	Cn1cnc(S(=O)(=O)NCCOc2ccc3c(c2)C(Cc2cccc(F)c2)C(N2CCCC2)CC3)c1 (stereo not shown) [Example 140, N-(2-{[8-(3-Fluorobenzyl)-7-(pyrrolidin-1-yl)-5,6,7,8-tetrahydronaphthalen-2-yl]oxy}ethyl)-1-methyl-1H-imidazole-4-sulfonamide hydrochloride]	–
≤ 0.1	CCNC1CCc2ccc(CNS(=O)(=O)c3cn(C)cn3)cc2C1Cc1ccc(F)cc1 (stereo not shown) [Example 199, 1-Methyl-1H-imidazole-4-sulfonic acid [7-ethylamino-8-(4-fluoro-benzyl)-5,6,7,8-tetrahydro-naphthalen-2-ylmethyl]-amide hydrochloride]	–
≤ 0.01	Cn1cc(S(=O)(=O)NCCOc2ccc3c(c2)C(Cc2ccccc2)C(N2CCC2)CC3)cn1 (stereo not shown) [Example 324, 1-Methyl-1H-pyrazole-4-sulfonic acid [2-(7-azetidin-1-yl-8-benzyl-5,6,7,8-tetrahydronaphthalen-2-yloxy)-ethyl]amide hydrochloride]	–
≤ 0.01	CCNC1CCc2ccc(OCCNS(=O)(=O)CC3CC3)cc2C1Cc1cccc(Cl)c1 (stereo not shown) [Example 307, N-{2-[8-(3-Chloro-benzyl)-7-ethylamino-5,6,7,8-tetrahydro-naphthalen-2-yloxy]-ethyl}-C-cyclopropyl-methanesulfonamide hydrochloride]	–
≤ 0.1	Cn1cnc(S(=O)(=O)NCc2ccc3c(c2)C(Cc2ccc(F)cc2)C(N)CC3)c1 (stereo not shown) [Example 176, N-{[7-Amino-8-(4-fluorobenzyl)-5,6,7,8-tetrahydronaphthalen-2-yl]methyl}-1-methyl-1H-imidazole-4-sulfonamide hydrochloride]	–
≤ 10	CC(=O)NC1CCc2ccc(CCCNS(=O)(=O)CC3CC3)cc2C1Cc1ccccc1 (stereo not shown) [Example 216, N-[1-Benzyl-7-(3-{[(cyclopropylmethyl)sulfonyl]amino}propyl)-1,2,3,4-tetrahydronaphthalen-2-yl]acetamide]	–
≤ 0.1	CN(CCOc1ccc2c(c1)C(Cc1ccccc1)C(N)CC2)S(=O)(=O)c1cnn(C)c1 (stereo not shown) [Example 109, 1-Methyl-1H-pyrazole-4-sulfonic acid [2-(7-amino-8-benzyl-5,6,7,8-tetrahydro-naphthalen-2-yloxy)-ethyl]-methyl-amide]	–
≤ 0.1	CN(CCCc1ccc2c(c1)C(Cc1ccc(Cl)cc1)C(N)CC2)S(=O)(=O)CC1CC1 (stereo not shown) [Example 233, N-{3-[7-Amino-8-(4-chlorobenzyl)-5,6,7,8-tetrahydronaphthalen-2-yl]propyl}-1-cyclopropylN-methylmethanesulfonamide hydrochloride]	–
≤ 0.01	Cn1cnc(S(=O)(=O)NCCOc2ccc3c(c2)C(Cc2cccc(F)c2)C(N2CCC2)CC3)c1 (stereo not shown) [Example 141, N-(2-{[7-(Azetidin-1-yl)-8-(3-fluorobenzyl)-5,6,7,8-tetrahydronaphthalen-2-yl]oxy}ethyl)-1-methyl-1H-imidazole-4-sulfonamide hydrochloride]	–
≤ 0.1	CNC1CCc2ccc(OCCNS(=O)(=O)c3cnn(C)c3)cc2C1Cc1ccccc1Cl (stereo not shown) [Example 302, 1-Methyl-1H-pyrazole-4-sulfonic acid {2-[8-(2-chloro-benzyl)-7-methylamino-5,6,7,8-tetrahydro-naphthalen-2-yloxy]-ethyl}-amide hydrochloride]	–
≤ 0.1	CCCS(=O)(=O)NCCCc1ccc2c(c1)C(Cc1ccc(F)cc1)C(N)CC2 (stereo not shown) [Example 213, N-{3-[7-Amino-8-(4-fluorobenzyl)-5,6,7,8-tetrahydronaphthalen-2-yl]propyl}propane-1-sulfonamide hydrochloride]	–
≤ 0.1	CC(C)NC1CCc2ccc(OCCNS(=O)(=O)c3cn(C)cn3)cc2C1Cc1cccc(C#N)c1 (stereo not shown) [Example 154, N-(2-{[8-(3-Cyanobenzyl)-7-(propan-2-ylamino)-5,6,7,8-tetrahydronaphthalen-2-yl]oxy}ethyl)-1-methyl-1H-imidazole-4-sulfonamide hydrochloride]	–
> 10	CCOC(=O)NC1CCc2ccc(OCCNS(=O)(=O)c3cnn(C)c3)cc2C1Cc1ccccc1Cl (stereo not shown) [Example 299, {1-(2-Chloro-benzyl)-7-[2-(1-methyl-1H-pyrazole-4-sulfonylamino)-ethoxy]-1,2,3,4-tetrahydro-naphthalen-2-yl}-carbamic acid ethyl ester]	–
≤ 0.1	CCCS(=O)(=O)N(C)Cc1ccc2c(c1)C(Cc1ccccc1)C(NC)CC2 (stereo not shown) [Example 275, N-{[8-Benzyl-7-(methylamino)-5,6,7,8-tetrahydronaphthalen-2-yl]methyl}-N-methylpropane-1-sulfonamide trifluoroacetate]	–
≤ 0.1	CCCS(=O)(=O)NCCCc1ccc2c(c1)C(Cc1ccc(Cl)c(Cl)c1)C(NC(C)C)CC2 (stereo not shown) [Example 272, N-{3-[8-(3,4-Dichlorobenzyl)-7-(propan-2-ylamino)-5,6,7,8-tetrahydronaphthalen-2-yl]propyl}propane-1-sulfonamide]	–
≤ 1	CCN(CCOc1ccc2c(c1)C(Cc1ccccc1)C(N1CCCC1)CC2)S(=O)(=O)c1cnn(C)c1 (stereo not shown) [Example 124, N-(2-{[8-Benzyl-7-(pyrrolidin-1-yl)-5,6,7,8-tetrahydronaphthalen-2-yl]oxy}ethyl)-N-ethyl-1-methyl-1H-pyrazole-4-sulfonamide hydrochloride]	–
≤ 0.1	CCCS(=O)(=O)NCCc1ccc2c(c1)C(Cc1cccc(Cl)c1)C(NC)CC2 (stereo not shown) [Example 309, Propane-1-sulfonic acid {2-[8-(3-chloro-benzyl)-7-methylamino-5,6,7,8-tetrahydronaphthalen-2-yl]-ethyl}-amide]	–
≤ 1	O=S(=O)(CC1CC1)NCCOc1ccc2c(c1)C(Cc1ccc(Cl)c(Cl)c1)C(N1CCC(F)C1)CC2 (stereo not shown) [Example 134, 1-Cyclopropyl-N-[2-({8-(3,4-dichlorobenzyl)-7-[3-fluoropyrrolidin-1-yl]-5,6,7,8-tetrahydronaphthalen-2-yl}oxy)ethyl]methanesulfonamide]	–
≤ 10	CC(=O)NC1CCc2ccc(CCCNS(=O)(=O)CC3CC3)cc2C1Cc1cccc(F)c1 (stereo not shown) [Example 218, N-[7-(3-{[(Cyclopropylmethyl)sulfonyl]amino}propyl)-1-(3-fluorobenzyl)-1,2,3,4-tetrahydronaphthalen-2-yl]acetamide]	–
≤ 10	CCOC(=O)NC1CCc2ccc(OCCNS(=O)(=O)CC3CC3)cc2C1Cc1cccc(Cl)c1 (stereo not shown) [Example 287, [1-(3-Chloro-benzyl)-7-(2-cyclopropylmethanesulfonylamino-ethoxy)-1,2,3,4-tetrahydronaphthalen-2-yl]-carbamic acid ethyl ester]	–
≤ 0.01	CN(CCOc1ccc2c(c1)C(Cc1ccc(Cl)c(Cl)c1)C(N1CCCC1)CC2)S(=O)(=O)CC1CC1 (stereo not shown) [Example 126, C-Cyclopropyl-N-{2-[8-(3,4-dichloro-benzyl)-7-pyrrolidin-1-yl-5,6,7,8-tetrahydronaphthalen-2-yloxy]-ethyl}-N-methyl-methanesulfonamide hydrochloride]	–
–	CCCS(=O)(=O)N(CCOc1ccc2c(c1)C(Cc1cccc(Cl)c1)C(NC(=O)OCC)CC2)C1CC1 (stereo not shown) [Example 279]	≤ 10
≤ 0.1	Cn1cnc(S(=O)(=O)NCCOc2ccc3c(c2)C(Cc2ccccc2Cl)C(N)CC3)c1 (stereo not shown) [Example 305, 1-Methyl-1H-imidazole-4-sulfonic acid {2-[7-amino-8-(2-chloro-benzyl)-5,6,7,8-tetrahydronaphthalen-2-yloxy]-ethyl}-amide hydrochloride]	–
≤ 1	CCN(CCOc1ccc2c(c1)C(Cc1ccc(Cl)c(Cl)c1)C(N)CC2)S(=O)(=O)c1cnn(C)c1 (stereo not shown) [Example 110, N-(2-(7-Amino-8-(3,4-dichlorobenzyl)-5,6,7,8-tetrahydronaphthalen-2-yloxy)ethyl)-N-ethyl-1-methyl-1H-pyrazole-4-sulfonamide]	–
≤ 0.1	CCNC1CCc2ccc(CCCNS(=O)(=O)CC3CC3)cc2C1Cc1ccccc1 (stereo not shown) [Example 224, N-{3-[8-Benzyl-7-(ethylamino)-5,6,7,8-tetrahydronaphthalen-2-yl]propyl}-1-cyclopropylmethanesulfonamide hydrochloride]	–
≤ 0.1	CNC1CCc2ccc(OCCNS(=O)(=O)c3ccn(C)c3)cc2C1Cc1cc(F)cc(F)c1 (single isomer, unassigned; enantiomer 1) [Example 241, Enantiomer 1 of N-(2-{[8-(3,5-difluorobenzyl)-7-(methylamino)-5,6,7,8-tetrahydronaphthalen-2-yl]oxy}ethyl)-1-methyl-1H-pyrrole-3-sulfonamide hydrochloride]	–
≤ 0.1	NC1CCc2ccc(CCCNS(=O)(=O)CC3CC3)cc2C1Cc1ccccc1 (stereo not shown) [Example 207, N-{3-[7-Amino-8-benzyl-5,6,7,8-tetrahydronaphthalen-2-yl]propyl}-1-cyclopropylmethanesulfonamide trifluoroacetate]	–
≤ 0.01	NC1CCc2ccc(OCCNS(=O)(=O)CC3CC3)cc2C1Cc1cc(F)cc(Cl)c1 (stereo not shown) [Example 150, N-(2-{[7-Amino-8-(3-chloro-5-fluorobenzyl)-5,6,7,8-tetrahydronaphthalen-2-yl]oxy}ethyl)-1-cyclopropylmethanesulfonamide hydrochloride]	–

SMILES	Ki [1] [µM]	Ki [µM]
C[Si](C)(C)CCS(=O)(=O)NCCOc1ccc2c(c1)C(Cc1ccc(Cl)c(Cl)c1)C(N)CC2 (stereo not shown) [Example 86, 2-Trimethylsilanyl-ethanesulfonic acid {2-[7-amino-8-(3,4-dichloro-benzyl)-5,6,7,8-tetrahydro-naphthalen-2-yloxy]-ethyl}-amide hydrochloride]	≤ 10	–
